Measurements from patent US7586008B2, “Propofol analogs, process for their preparation, and methods of use” (Abraxis Bioscience, Inc., priority 2003, dated 2009).
pIC50: −log10 of the molar value.

Experiments:
rats [1] = assay: In vivo hypnotic/anesthetic activity, time to recovery of righting reflex; design: species or system rat; details: for Anesthesia Activity (Time to awakening, min): rats, tail vein injection in DMSO, 28 μmol/kg (5 mg/kg for propofol)
Experimental: (§1) To determine the binding constant (KD) of propofol and its analogs for GABAA Cl channel, binding was determined as in Example 25 in presence of increasing concentration of propofol and the KD determined graphically using the Hill plots. In vivo hypnotic activity was determined as follows. Drugs solubilized in DMSO were administered to rats by tail vein injection (N=5 rats per group). A dose level of 28 μmol/kg (5 mg/kg for propofol) was used to compensate for differences in molecular weight of the analogs. Anesthetic activity in vivo was determined as time to recovery of righting reflex following administration of the compounds.
(§2) Dose escalation experiment was performed in rat in order to compare the toxicity and the pharmacodynamic of CT8 against propofol. Drugs solubilized in DMSO were administered to rats (5 rats per group). Anesthetic activity in vivo was determined as time to recovery of righting reflex. Mortality was also monitored and the LD50 curves for propofol and CT8 constructed. In order to adjust for the differences in molecular weight between the two compounds, μmol/kg dose was used.

GABAA Cl channel = assay: Competitive binding assay, GABAA Cl channel (3H-TBOB), bovine hippocampus; details: increasing concentration, Hill plots; for pIC50: read-out: GABAA CI Channel Binding (IC50)
Experimental: The propofol binding site on GABAA was defined using a series of competitive binding assays. Frozen bovine hippocampus was thawed and homogenized in 40 volumes of ice-cold 0.32 M sucrose. The suspension was centrifuged at 1000×g for 10 minutes at 4° C. The pellet was washed twice in assay buffer and reacted with radioactive ligand in presence or absence of propofol at 10−4 M final concentration. The amount of radioactivity remained on the Whatman filter following filtration of the reaction mix and two washes with assay buffer was determined using a liquid scintillation counter. Inhibition of radioactive ligand binding by propofol represents the competitive binding of propofol to the same site as the radioactive ligand. GABAA agonist site, GABAA α-1 site, GABAA α-5 site, GABAA α-6 site, and GABAA Cl channel were assayed using ^3H-GABA, ^3H-Flunitrazepam, ^3H-RY80, ^3H-Ro 15-4513, and ^3H-TBOB.
as §1

rats [2] = assay: Dose escalation toxicity, mortality and LD curves; details: rat
Experimental: as §2

[3] = rat
in vivo = details: male, Sprague-Dawley, rat, whole blood, iv
[4] = single i.v. bolus in DMSO, propofol 5 mg/kg, CT8 10 mg/kg

Q: With `CC(C)c1cc(C(=O)c2ccc(Cl)cc2)cc(C(C)C)c1O` [CY182, (4-chlorophenyl)-(4-hydroxy-3,5-diisopropylphenyl)methanone] as the molecule, how does the “Anesthesia Activity (Time to awakening, min)” value (“Anesthesia Activity” for short) (rats [1]) read?
A: 67.7 ± 5.1, N = 3 min

Q: Which “Anesthesia Activity” value (rats [1]) does the source give for `CC(C)c1cc(C(=O)c2ccc(F)cc2)cc(C(C)C)c1O` [CT7, (4-fluorophenyl)-(4-hydroxy-3,5-diisopropylphenyl)methanone] here?
A: 34.2 ± 1.2, N = 2 min

Q: With `CC(C)c1cc(C(=O)c2ccc([N+](=O)[O-])cc2)cc(C(C)C)c1O` [CY61, (4-hydroxy-3,5-diisopropylphenyl)-(4-nitrophenyl)methanone] as the molecule, how does the pIC50 (GABAA Cl channel) read?
A: 6.30

Q: What about the “Anesthesia Activity” value (rats [1]) of the same molecule?
A: 57.2 ± 0.7, N = 5 min

Q: With `CC(C)c1cc(C(=O)c2ccc(C(F)(F)F)nc2)cc(C(C)C)c1O` [CY176, (6-(trifluoromethyl)pyridin-3-yl)-(4-hydroxy-3,5-diisopropylphenyl)methanone] as the molecule, how does the “Anesthesia Activity” value (rats [1]) read?
A: 14.9 + 21.1, N = 2 min

Q: With `CC(C)c1cc(C(=O)c2cc(C(F)(F)F)cc(C(F)(F)F)c2)cc(C(C)C)c1O` [CY104, (3,5-bis(trifluoromethyl)phenyl)-(4-hydroxy-3,5-diisopropylphenyl)methanone] as the molecule, how does the pIC50 (GABAA Cl channel) read?
A: 4.67

Q: And the “Anesthesia Activity” value (rats [1])?
A: 6.4 ± 2.8, N = 4 min

Q: For `CC(C)c1cc(C(=O)c2ccc(C(C)(C)C)cc2)cc(C(C)C)c1O` [CY120, (4-tert-butylphenyl)-(4-hydroxy-3,5-diisopropylphenyl)methanone], which “Anesthesia Activity” value (rats [1]) is on record?
A: 15.5 ± 9.2, N = 2 min

Q: With `CC(C)c1cc(C(=O)c2ccc(I)cc2)cc(C(C)C)c1O` [CY155, (4-hydroxy-3,5-diisopropylphenyl)-(4-iodophenyl)methanone] as the molecule, how does the pIC50 (GABAA Cl channel) read?
A: 6.24

Q: For `COc1ccc(C(=O)c2cc(C(C)C)c(O)c(C(C)C)c2)cc1` [CY157, (4-hydroxy-3,5-diisopropylphenyl)-(4-methoxyphenyl)methanone], which “Anesthesia Activity” value (rats [1]) is on record?
A: 0.0 + 0.0, N = 5 min

Q: With `CC(C)c1cc(C(=O)c2ccc(Br)cc2)cc(C(C)C)c1O` [CY178, (4-bromophenyl)-(4-hydroxy-3,5-diisopropylphenyl)methanone] as the molecule, how does the “Anesthesia Activity” value (rats [1]) read?
A: 66.6 ± 17.9, N = 5 min

Q: With `CC(C)c1cc(C(=O)c2ccc(S(C)(=O)=O)cc2)cc(C(C)C)c1O` [CY177] as the molecule, how does the “Anesthesia Activity” value (rats [1]) read?
A: 4.6 ± 1.5, N = 5 min

Q: What does the source list for `CC(C)c1cc(C(=O)c2cccc(C(F)(F)F)c2)cc(C(C)C)c1O` [CY96, (3-(trifluoromethyl)phenyl)-(4-hydroxy-3,5-diisopropylphenyl)methanone]?
A: pIC50 (GABAA Cl channel): 5.41; Anesthesia Activity (Time to awakening, min) (rats [1]): 5.5 ± 2.4, N = 5 min

Q: For `CC(C)Cc1ccc(C(=O)c2cc(C(C)C)c(O)c(C(C)C)c2)cc1` [CY122, (4-hydroxy-3,5-diisopropylphenyl)-(4-isobutylphenyl)methanone], which “Anesthesia Activity” value (rats [1]) is on record?
A: 7.6 ± 1.8, N = 5 min

Q: With `CC(C)c1cc(C(=O)c2ccc(C#N)cc2)cc(C(C)C)c1O` [CY175, (4-cyanophenyl)-(4-hydroxy-3,5-diisopropylphenyl)methanone] as the molecule, how does the “Anesthesia Activity” value (rats [1]) read?
A: 43.4 ± 23.5, N = 2 min

Q: For `CC(C)c1cc(C(=O)c2ccc3ccccc3c2)cc(C(C)C)c1O` [CY99, (4-hydroxy-3,5-diisopropylphenyl)-(naphthalen-2-yl)methanone], which “GABAA CI Channel Binding (IC50, μM)” value (GABAA Cl channel) is on record?
A: No activity

Q: And the “Anesthesia Activity” value (rats [1])?
A: 5.5 ± 3.4, N = 5 min

Q: Which “Anesthesia Activity” value (rats [1]) does the source give for `CC(C)c1cc(C(O)c2ccc(C(F)(F)F)cc2)cc(C(C)C)c1O` (stereo not drawn) [CY135, 4-((4-(trifluoromethyl)phenyl)-(hydroxy)methyl)-2,6-diisopropylphenol] here?
A: 15.0 ± 11.4, N = 5 min

Q: For `CON=C(c1ccc(C(F)(F)F)cc1)c1cc(C(C)C)c(O)c(C(C)C)c1` [CY127, 4-((4-(trifluoromethyl)phenyl)-(methoxyimino)methyl)-2,6-diisopropylphenol], which “Anesthesia Activity” value (rats [1]) is on record?
A: 8.8 ± 5.8, N = 5 min

Q: Which “Anesthesia Activity” value (rats [1]) does the source give for `CC(C)c1cc(Cc2ccc(C(F)(F)F)cc2)cc(C(C)C)c1O` [CY130, 4-(4-(trifluoromethyl)benzyl)-2,6-diisopropylphenol] here?
A: 8.2 ± 3.0, N = 5 min

Q: What does the source list for `CC(C)c1cc(C(=O)c2ccc(C(F)(F)F)c(F)c2)cc(C(C)C)c1O` [CY93, (3-fluoro-4-(trifluoromethyl)phenyl)-(4-hydroxy-3,5-diisopropylphenyl)methanone]?
A: pIC50 (GABAA Cl channel): 5.90; Anesthesia Activity (Time to awakening, min) (rats [1]): 52.4 ± 37.7, N = 3 min

Q: With `CC(C)c1cc(C(=O)c2ccc(C(F)(F)F)cc2)cc(C(C)C)c1O` [CT8, (4-(trifluoromethyl)phenyl)-(4-hydroxy-3,5-diisopropylphenyl)methanone] as the molecule, how does the pIC50 (GABAA Cl channel) read?
A: 6.24

Q: What about the “Time to Awakening (h) [mean ± SD, (N)]” value (rats [1]; rat, dose 1.43 μmol/kg) of the same molecule?
A: 0.000 ± 0.000, (5) h

Q: And the “Time to Awakening (h) [mean ± SD, (N)]” value (rats [1]; rat, dose 2.86 μmol/kg)?
A: 0.000 ± 0.000, (5) h

Q: What about the “Time to Awakening (h) [mean ± SD, (N)]” value (rats [1]; rat, dose 14.28 μmol/kg) of the same molecule?
A: 0.748 ± 0.094, (5) h

Q: And the “Time to Awakening (h) [mean ± SD, (N)]” value (rats [1]; rat, dose 28.10 μmol/kg)?
A: 1.543 ± 0.085, (4) h

Q: And the “Time to Awakening (h) [mean ± SD, (N)]” value (rats [1]; rat, dose 28.56 μmol/kg)?
A: 1.728 ± 0.154 (5) h

Q: And the “Time to Awakening (h) [mean ± SD, (N)]” value (rats [1]; rat, dose 57.12 μmol/kg)?
A: 3.553 ± 0.166, (3) h

Q: And the “time rats were asleep at LD10” value (rats [1]; rat, dose = LD10)?
A: 1.73 h

Q: What about the “Mortality (%)” value (rats [2]; dose 1.427959 μmol/kg) of the same molecule?
A: 0%

Q: And the “Mortality (%)” value (rats [2]; dose 2.855919 μmol/kg)?
A: 0%

Q: And the “Mortality (%)” value (rats [2]; dose 14.2796 μmol/kg)?
A: 0%

Q: What about the “Mortality (%)” value (rats [2]; dose 28.55919 μmol/kg) of the same molecule?
A: 10%

Q: What about the “Mortality (%)” value (rats [2]; dose 57.11838 μmol/kg) of the same molecule?
A: 40%

Q: What about the “Mortality (%)” value (rats [2]; dose 114.2368 μmol/kg) of the same molecule?
A: 100%

Q: And the “Mortality (%)” value (rats [2]; dose 228.4735 μmol/kg)?
A: 100%

Q: And the “calculated LD10” value (rats [2]; drugs in DMSO)?
A: 29 µmol/kg

Q: And the “AUC, fold higher than that of propofol” value ([3]; i.v. bolus, ratio to propofol)?
A: 317 ×

Q: What about the “CL, fold slower than propofol” value ([3]; i.v. bolus, ratio to propofol) of the same molecule?
A: 146 ×

Q: What about the “V1, fold smaller than that of propofol” value ([3]; i.v. bolus, ratio to propofol) of the same molecule?
A: 375 ×

Q: And the “V2, fold smaller than that of propofol” value ([3]; i.v. bolus, ratio to propofol)?
A: 11 ×

Q: What about the “Vss, fold smaller than that of propofol” value ([3]; i.v. bolus, ratio to propofol) of the same molecule?
A: 14 ×

Q: And the “V1” value [3, 4]?
A: 0.04 L/kg

Q: What about the “V2” value [3, 4] of the same molecule?
A: 5.2 L/kg

Q: And the Vd (in vivo)?
A: 5.3 L/kg

Q: And the clearance (in vivo)?
A: 1.33 mL/min/kg

Q: Which results are given for `CC(C)c1cc(C(=O)c2cc(F)cc(C(F)(F)F)c2)cc(C(C)C)c1O` [CY97, (3-fluoro-5-(trifluoromethyl)phenyl)-(4-hydroxy-3,5-diisopropylphenyl)methanone]?
A: pIC50 (GABAA Cl channel): 5.33; Anesthesia Activity (Time to awakening, min) (rats [1]): 1.9 ± 1.0, N = 5 min

Q: With `CCCc1ccc(C(=O)c2cc(C(C)C)c(O)c(C(C)C)c2)cc1` [CY181, (4-hydroxy-3,5-diisopropylphenyl)-(4-propylphenyl)methanone] as the molecule, how does the “Anesthesia Activity” value (rats [1]) read?
A: 9.0 + 20.1, N = 5 min
